Blank lines part the entries; values can stand above or below the compound they belong to.
Columns and labels:
[1] = molecular target: T1, human ADRA2C receptor (Homo sapiens (Human), UniProt P18825); test: In vitro radioligand binding studies ([3H] rauwolscine competition) at the human adrenoreceptor ADRA2C; details: for IC50: 0.5 nM [3H] rauwolscine, homogenates of CHO-K1 cells expressing human ADRA2C, 1 h at 4° C., read-out: hARα2C IC50; for Ki: calculated from IC50 and Kd with the Cheng Prusoff equation, read-out: hARα2C Ki
T1 sequence (P18825 whole entry): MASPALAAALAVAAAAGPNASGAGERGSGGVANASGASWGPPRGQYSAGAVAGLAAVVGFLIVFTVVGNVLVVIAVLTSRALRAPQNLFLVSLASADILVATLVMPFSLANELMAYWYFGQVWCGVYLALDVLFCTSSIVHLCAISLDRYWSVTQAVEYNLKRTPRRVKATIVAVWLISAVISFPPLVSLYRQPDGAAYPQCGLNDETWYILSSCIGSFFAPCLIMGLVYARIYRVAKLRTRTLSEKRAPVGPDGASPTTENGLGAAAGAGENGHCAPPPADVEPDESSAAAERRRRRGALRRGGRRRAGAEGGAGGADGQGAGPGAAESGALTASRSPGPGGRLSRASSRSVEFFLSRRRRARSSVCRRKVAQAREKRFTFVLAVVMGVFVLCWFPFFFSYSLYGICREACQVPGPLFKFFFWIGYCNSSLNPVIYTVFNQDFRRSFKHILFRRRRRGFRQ
Protocol: B-1 In Vitro Radioligand Binding Studies for Determination of the Dissociation Constants K1 at the Human Adrenoreceptor ADRA2C (Eurofins Panlabs Discovery Services, Taiwan, Ltd)
A competition assay based on [^3H] rauwolscine as radioliganden was used to determine the binding affinity of the test substances at the human ADRA2C receptor.
To configure the competition assay, the equilibrium dissociation constant Kd of the radioligand [^3H] rauwolscine was determined in a saturation experiment. To this end, homogenates of CHO-K1 cells recombinantly expressing the human ADRA2C receptor were incubated with increasing concentrations of the radiotracers for 1 h at 4° C. in binding buffer (50 mM Tris-HCl, 1 mM EDTA, pH 7.4). Unspecific binding was determined by addition of an excess of the not radioactively labelled ligand prazosin (10 μM). The radioactivity was determined in a scintiation counter.
The competition experiments were carried out in the presence of 0.5 nM [^3H] rauwolscine and increasing concentrations of the test substances to be characterized under the conditions described above.
From the IC50 value measured in the competition experiment and the […] from the saturation experiment, the equilibrium constant Ki of the inhibitor, which describes the affinity of the test substances to the receptor, was calculated using the Cheng Prusoff equation [Cheng Y, Prusoff WH. Relationship between the inhibition constant (Ki) and the concentration of inhibitor which causes 50 percent inhibition (I50) of an enzymatic reaction. […] PMID 4202581 PMID: 4202581].

[2] = molecular target: T1, human ADRA2C receptor; test: In vitro activity assay to determine the inhibition of recombinant ADRA2C (CHO-K1 cells, aequorin bioluminescence); assay type: cell-based; details: inhibition of noradrenaline-induced bioluminescence signal; some mean values from multiple determinations; read-out: ARα2C IC50
Procedure, shortened: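 IC50 is the concentration halving the agonist (noradrenaline)-evoked rise in aequorin luminescence, fitted by 4-parameter Hill function. Read in stable Gαq/aequorin CHO-K1 cells expressing recombinant human ADRA2C.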

[3] = system: anaesthetized, spontaneously breathing pigs; test: Pig model of obstructive sleep apnea (OSA): upper airway collapsibility under negative pressure; assay type: in vivo, German Landrace pigs; details: for upper airway collapsibility / time points at which upper airway collapsibility was inhibited at all negative pressures of −50, −100 and −150 cm H2O in all pigs: alone
Source text: B-3 Animal Model of Obstructive Sleep Apnoea in the Pig
Using negative pressure, it is possible to induce collapse and thus obstruction of the upper respiratory tract in anesthetized, spontaneously breathing pigs [Wirth et al., Sleep 36, 699-708 (2013)].
German Landrace pigs are used for the model. The pigs are anesthetized and tracheotomized. One cannula each is inserted into the rostral and the caudal part of the trachea. Using a T connector, the rostral cannula is connected on the one hand to a device generating negative pressures and on the other hand to the caudal cannula. Using a T connector, the caudal cannula is connected to the rostral cannula and to a tube which allows spontaneous breathing circumventing the upper respiratory tract. By appropriate closing and opening of the tubes it is thus possible for the pig to change from normal nasal breathing to breathing via the caudal cannula during the time when the upper respiratory tract is isolated and connected to the device for generating negative pressures. The muscle activity of the musculus genioglossus is recorded by electromyogram (EMG).
(§1) At certain points in time, the collapsibility of the upper respiratory tract is tested by having the pig breathe via the caudal cannula and applying negative pressures of −50, −100 and −150 cm water head (cmH2O) to the upper respiratory tract. This causes the upper respiratory tract to collapse, which manifests itself in an interruption of the airflow and a pressure drop in the tube system. This test is conducted prior to the administration of the test substance and at certain intervals after the administration of the test substance. An appropriately effective test substance can prevent this collapse of the respiratory tract in the inspiratory phase.
Administration of the test substance can be intranasal, intravenous, subcutaneous, intraperitoneal, intraduodenal or intragastral.
The therapeutic potential of the combination of an α2-Adrenoceptor subtype C (alpha-2C) antagonists with a TASK⅓ channel blocker according to the present invention in sleep apnea can be assessed preclinically in a pig model of obstructive sleep apnea (OSA).
Using negative pressure, it is possible to induce collapse and thus obstruction of the upper respiratory tract in anaesthetized, spontaneously breathing pigs (Wirth K. J. et al., Sleep 36(5) (2013) pp. 699-708).
German Landrace pigs are used for the model. The pigs are anaesthetized and tracheotomized. Two tracheal cannulas are inserted into the trachea, one into the rostral part and the other into the caudal part of the trachea. Using a connection piece, the rostral cannula is connected to a tube to the negative pressure device and to the distal tracheal cannula. The distal tracheal cannula is additionally connected to a tube with an open end to atmosphere via a connection piece that served for free tracheal breathing, circumventing the upper airway. By appropriate opening and clamping of those tubes breathing can be switched from nasal breathing to breathing through the caudal tracheal cannula, circumventing the upper airway, and the (isolated) upper airway can be connected to the negative pressure device, causing airflow in the inspiratory direction.
as §1, with “(cm H2O)” for “(cmH2O)”

[4] = 0.01 mg/kg intraduodenal at 0 min, time 0 min
[5] = 0.01 mg/kg intraduodenal at 0 min, time 30 min
[6] = 0.01 mg/kg intraduodenal at 0 min, time 60 min
[7] = 0.01 mg/kg intraduodenal at 0 min, time 90 min
[8] = 0.01 mg/kg intraduodenal at 0 min, time 120 min
[9] = 0.01 mg/kg intraduodenal at 0 min, time 150 min
[10] = 0.01 mg/kg intraduodenal at 0 min, time 180 min
[11] = 0.01 mg/kg intraduodenal at 0 min, time 210 min
[12] = 0.01 mg/kg intraduodenal at 0 min, time 230 min
[13] = second set, 0.01 mg/kg intraduodenal at 0 min, time 0 min
[14] = second set, 0.01 mg/kg intraduodenal at 0 min, time 30 min
[15] = second set, 0.01 mg/kg intraduodenal at 0 min, time 60 min
[16] = second set, 0.01 mg/kg intraduodenal at 0 min, time 90 min
[17] = second set, 0.01 mg/kg intraduodenal at 0 min, time 120 min
[18] = second set, 0.01 mg/kg intraduodenal at 0 min, time 150 min
[19] = second set, 0.01 mg/kg intraduodenal at 0 min, time 180 min
[20] = 15 μg/kg i.v. bolus then 5 μg/kg/h i.v. infusion for four hours from 0 min, time 0 min
[21] = 15 μg/kg i.v. bolus then 5 μg/kg/h i.v. infusion for four hours from 0 min, time 30 min
[22] = 15 μg/kg i.v. bolus then 5 μg/kg/h i.v. infusion for four hours from 0 min, time 60 min
[23] = 15 μg/kg i.v. bolus then 5 μg/kg/h i.v. infusion for four hours from 0 min, time 90 min
[24] = 15 μg/kg i.v. bolus then 5 μg/kg/h i.v. infusion for four hours from 0 min, time 120 min

IC50 [1]: 54 nM
Ki [1]: 24 nM
IC50 [2]: 121 nM
Structure (SMILES): C[C@@H]1CCCN(C2CCN(c3ncc(C(=O)NCc4ncc(F)cc4F)s3)CC2)C1 [Example 1, N-[(3,5-Difluoropyridin-2-yl)methyl]-2-[(3R)-3-methyl[1,4′-bipiperidin]-1′-yl]-1,3-thiazole-5-carboxamide]

IC50 [1]: 5 nM
Ki [1]: 2 nM
IC50 [2]: 2.9 nM
Structure (SMILES): COCC1CCCN(C2CCN(c3ncc(C(=O)NCc4ncc(F)cc4F)s3)CC2)C1 (single isomer, unassigned) [Example 100, ent-N-[(3,5-Difluoropyridin-2-yl)methyl]-2-[3-(methoxymethyl)[1,4′-bipiperidin]-1′-yl]-1,3-thiazole-5-carboxamide]

Structure (SMILES): C[C@@H]1CCCN(C2CCN(c3ncc(C(=O)NCc4ncc(F)cc4F)s3)CC2)C1 [N-[(3,5-difluoropyridin-2-yl)methyl]-2-[(3R)-3-methyl[1,4′-bipiperidin]-1′-yl]-1,3-thiazole-5-carboxamide]
Percent pigs without collaps −50 cm H2O [3, 4]: 0%
Percent pigs without collaps −100 cm H2O [3, 4]: 0%
Percent pigs without collaps −150 cm H2O [3, 4]: 0%
Percent pigs without collaps −50 cm H2O [3, 5]: 0%
Percent pigs without collaps −100 cm H2O [3, 5]: 0%
Percent pigs without collaps −150 cm H2O [3, 5]: 0%
Percent pigs without collaps −50 cm H2O [3, 6]: 0%
Percent pigs without collaps −100 cm H2O [3, 6]: 0%
Percent pigs without collaps −150 cm H2O [3, 6]: 0%
Percent pigs without collaps −50 cm H2O [3, 7]: 33%
Percent pigs without collaps −100 cm H2O [3, 7]: 33%
Percent pigs without collaps −150 cm H2O [3, 7]: 33%
Percent pigs without collaps −50 cm H2O [3, 8]: 100%
Percent pigs without collaps −100 cm H2O [3, 8]: 100%
Percent pigs without collaps −150 cm H2O [3, 8]: 67%
Percent pigs without collaps −50 cm H2O [3, 9]: 100%
Percent pigs without collaps −100 cm H2O [3, 9]: 100%
Percent pigs without collaps −150 cm H2O [3, 9]: 100%
Percent pigs without collaps −50 cm H2O [3, 10]: 100%
Percent pigs without collaps −100 cm H2O [3, 10]: 100%
Percent pigs without collaps −150 cm H2O [3, 10]: 100%
Percent pigs without collaps −50 cm H2O [3, 11]: 67%
Percent pigs without collaps −100 cm H2O [3, 11]: 33%
Percent pigs without collaps −150 cm H2O [3, 11]: 0%
Percent pigs without collaps −50 cm H2O [3, 12]: 0%
Percent pigs without collaps −100 cm H2O [3, 12]: 0%
Percent pigs without collaps −150 cm H2O [3, 12]: 0%
upper airway collapsibility ([3]; 0.01 mg/kg intraduodenal, 230 min after administration, all pigs): induced at all negative pressures
time points at which upper airway collapsibility was inhibited at all negative pressures of −50, −100 and −150 cm H2O in all pigs ([3]; 0.01 mg/kg intraduodenal, first set): only at time point 150 and 180 min
time points at which upper airway collapsibility was inhibited at all negative pressures of −50, −100 and −150 cm H2O in all pigs ([3]; 0.01 mg/kg intraduodenal, second set): at no time point
Percent pigs without collaps −50 cm H2O [3, 13]: 0%
Percent pigs without collaps −100 cm H2O [3, 13]: 0%
Percent pigs without collaps −150 cm H2O [3, 13]: 0%
Percent pigs without collaps −50 cm H2O [3, 14]: 0%
Percent pigs without collaps −100 cm H2O [3, 14]: 0%
Percent pigs without collaps −150 cm H2O [3, 14]: 0%
Percent pigs without collaps −50 cm H2O [3, 15]: 50%
Percent pigs without collaps −100 cm H2O [3, 15]: 0%
Percent pigs without collaps −150 cm H2O [3, 15]: 0%
Percent pigs without collaps −50 cm H2O [3, 16]: 100%
Percent pigs without collaps −100 cm H2O [3, 16]: 50%
Percent pigs without collaps −150 cm H2O [3, 16]: 50%
Percent pigs without collaps −50 cm H2O [3, 17]: 100%
Percent pigs without collaps −100 cm H2O [3, 17]: 100%
Percent pigs without collaps −150 cm H2O [3, 17]: 0%
Percent pigs without collaps −50 cm H2O [3, 18]: 50%
Percent pigs without collaps −100 cm H2O [3, 18]: 0%
Percent pigs without collaps −150 cm H2O [3, 18]: 0%
Percent pigs without collaps −50 cm H2O [3, 19]: 0%
Percent pigs without collaps −100 cm H2O [3, 19]: 0%
Percent pigs without collaps −150 cm H2O [3, 19]: 0%
upper airway collapsibility ([3]; second set, 0.01 mg/kg intraduodenal, 90 min after administration): only inhibited at negative pressures of −50 cm head
upper airway collapsibility ([3]; second set, 0.01 mg/kg intraduodenal, 120 min after administration): only inhibited at negative pressures of −50 and −100 cm head
upper airway collapsibility ([3]; second set, 0.01 mg/kg intraduodenal, 180 min after administration, all pigs): induced at all negative pressures

Structure (SMILES): COCC1CCCN(C2CCN(c3ncc(C(=O)NCc4ncc(F)cc4F)s3)CC2)C1 (stereo not shown)
Percent pigs without collaps −50 cm H2O [3, 20]: 0%
Percent pigs without collaps −100 cm H2O [3, 20]: 0%
Percent pigs without collaps −150 cm H2O [3, 20]: 0%
Percent pigs without collaps −50 cm H2O [3, 21]: 0%
Percent pigs without collaps −100 cm H2O [3, 21]: 0%
Percent pigs without collaps −150 cm H2O [3, 21]: 0%
Percent pigs without collaps −50 cm H2O [3, 22]: 0%
Percent pigs without collaps −100 cm H2O [3, 22]: 0%
Percent pigs without collaps −150 cm H2O [3, 22]: 0%
Percent pigs without collaps −50 cm H2O [3, 23]: 50%
Percent pigs without collaps −100 cm H2O [3, 23]: 50%
Percent pigs without collaps −150 cm H2O [3, 23]: 50%
Percent pigs without collaps −50 cm H2O [3, 24]: 0%
Percent pigs without collaps −100 cm H2O [3, 24]: 0%
Percent pigs without collaps −150 cm H2O [3, 24]: 0%
time points at which upper airway collapsibility was inhibited at all negative pressures of −50, −100 and −150 cm H2O in all pigs ([3]; third set, 15 μg/kg i.v. bolus followed by i.v. infusion of 5 μg/kg/h for four hours): at no time point

Source: patent publication US20240000767A1, “COMBINATION OF AN ALPHA2-ADRENOCEPTOR SUBTYPE C (ALPHA-2C) ANTAGONIST WITH A TASK1/3 CHANNEL BLOCKER FOR THE TREATMENT OF SLEEP APNEA” (Bayer Aktiengesellschaft, priority 2020, published 2024)
